Source: ChEMBL document CHEMBL3046004, “Esterase-mediated resistance to pyrethroids in field populations of Helicoverpa armigera (Lepidoptera: Noctuidae) from Central Africa” (2009)

What was measured:
Assay type in all cases: functional
Helicoverpa armigera [1] = test: Resistance factor, ratio of LD50 for fourth-instar larval stage of Helicoverpa armigera field strain Gaschiga isolated from hyptis plant to LD50 for fourth-instar larval stage of pyrethroid-susceptible Helicoverpa armigera laboratory strain BK-77
Helicoverpa armigera [2] = test: Insecticidal activity against fourth-instar larval stage of Helicoverpa armigera field strain Pitoa isolated from tomato plant assessed as mortality applied topically onto thorax 30 min after 10 microg/larva cytochrome P450 monooxygenase inhibitor, PBO application measured after 48 hr
Helicoverpa armigera [3] = test: Resistance factor, ratio of LD50 for fourth-instar larval stage of pyrethroid-resistance Helicoverpa armigera laboratory strain GS-RR06 to LD50 for fourth-instar larval stage of pyrethroid-susceptible Helicoverpa armigera laboratory strain BK-77
Helicoverpa armigera [4] = test: Resistance factor, ratio of LD50 for fourth-instar larval stage of Helicoverpa armigera Foumbot to LD50 for fourth-instar larval stage of pyrethroid-susceptible Helicoverpa armigera laboratory strain BK-77
Helicoverpa armigera [5] = test: Synergism factor, ratio of LD50 for fourth-instar larval stage of Helicoverpa armigera field strain Pitoa isolated from maize plant to LD50 for fourth-instar larval stage of Helicoverpa armigera field strain Pitoa isolated from maize plant in presence of 10 microg/larva cytochrome P450 monooxygenase inhibitor, PBO
Helicoverpa armigera [6] = test: Synergism factor, ratio of LD50 for Helicoverpa armigera field strain Guider to LD50 for fourth-instar larval stage of Helicoverpa armigera field strain Guider in presence of 10 microg/larva cytochrome P450 monooxygenase inhibitor, PBO
Helicoverpa armigera [7] = test: Insecticidal activity against fourth-instar larval stage of Helicoverpa armigera field strain Guider isolated from cotton plant assessed as mortality applied topically onto thorax measured after 48 hr
Helicoverpa armigera [8] = test: Insecticidal activity against fourth-instar larval stage of Helicoverpa armigera Foumbot isolated from tomato plant assessed as mortality applied topically onto thorax 30 min after 10 microg/larva cytochrome P450 monooxygenase inhibitor, PBO application measured after 48 hr
Helicoverpa armigera [9] = test: Resistance factor, ratio of LD50 for fourth-instar larval stage of Helicoverpa armigera field strain Mokong to LD50 for fourth-instar larval stage of pyrethroid-susceptible Helicoverpa armigera laboratory strain BK-77
Helicoverpa armigera [10] = test: Resistance factor, ratio of LD50 for fourth-instar larval stage of Helicoverpa armigera field strain Tchollire to LD50 for fourth-instar larval stage of pyrethroid-susceptible Helicoverpa armigera laboratory strain BK-77
Helicoverpa armigera [11] = test: Insecticidal activity against fourth-instar larval stage of Helicoverpa armigera field strain Home isolated from cotton plant assessed as mortality applied topically onto thorax measured after 48 hr
Helicoverpa armigera [12] = test: Resistance factor, ratio of LD50 for fourth-instar larval stage of Helicoverpa armigera field strain Home to LD50 for fourth-instar larval stage of pyrethroid-susceptible Helicoverpa armigera laboratory strain BK-77
Helicoverpa armigera [13] = test: Insecticidal activity against fourth-instar larval stage of Helicoverpa armigera field strain Gaschiga isolated from hyptis plant assessed as mortality applied topically onto thorax measured after 48 hr
Helicoverpa armigera [14] = test: Insecticidal activity against fourth-instar larval stage of Helicoverpa armigera field strain Pitoa isolated from maize plant assessed as mortality applied topically onto thorax 30 min after 10 microg/larva cytochrome P450 monooxygenase inhibitor, PBO application measured after 48 hr
Helicoverpa armigera [15] = test: Insecticidal activity against fourth-instar larval stage of Helicoverpa armigera field strain Sorga isolated from cotton plant assessed as mortality applied topically onto thorax measured after 48 hr
Helicoverpa armigera [16] = test: Synergism factor, ratio of LD50 for fourth-instar larval stage of Helicoverpa armigera field strain Home to LD50 for fourth-instar larval stage of Helicoverpa armigera field strain Home in presence of 10 microg/larva cytochrome P450 monooxygenase inhibitor, PBO
Helicoverpa armigera [17] = test: Synergism factor, ratio of LD50 for fourth-instar larval stage of Helicoverpa armigera field strain Gaschiga isolated form hyptis plant to LD50 for fourth-instar larval stage of Helicoverpa armigera field strain Gaschiga isolated from hyptis plant in presence of 10 microg/larva cytochrome P450 monooxygenase inhibitor, PBO
Helicoverpa armigera [18] = test: Synergism factor, ratio of LD50 for fourth-instar larval stage of pyrethroid-resistance Helicoverpa armigera laboratory strain GS-RR08 to LD50 for fourth-instar larval stage of pyrethroid-resistance Helicoverpa armigera laboratory strain GS-RR08 in presence of 3.2 microg/larva propenofos
Helicoverpa armigera [19] = test: Resistance factor, ratio of LD50 for fourth-instar larval stage of Helicoverpa armigera field strain Sorga to LD50 for fourth-instar larval stage of pyrethroid-susceptible Helicoverpa armigera laboratory strain BK-77
Helicoverpa armigera [20] = test: Insecticidal activity against fourth-instar larval stage of pyrethroid-susceptible Helicoverpa armigera laboratory strain BK-77 assessed as mortality applied topically onto thorax measured after 48 hr
Helicoverpa armigera [21] = test: Insecticidal activity against fourth-instar larval stage of Helicoverpa armigera Foumbot isolated from tomato plant assessed as mortality applied topically onto thorax measured after 48 hr
Helicoverpa armigera [22] = test: Synergism factor, ratio of LD50 for fourth-instar larval stage of Helicoverpa armigera field strain Ngong to LD50 for fourth-instar larval stage of Helicoverpa armigera field strain Ngong in presence of 10 microg/larva cytochrome P450 monooxygenase inhibitor, PBO
Helicoverpa armigera [23] = test: Insecticidal activity against fourth-instar larval stage of pyrethroid-resistance Helicoverpa armigera laboratory strain GS-RR08 assessed as mortality applied topically onto thorax measured after 48 hr
Helicoverpa armigera [24] = test: Resistance factor, ratio of LD50 for fourth-instar larval stage of Helicoverpa armigera field strain Ngong to LD50 for fourth-instar larval stage of pyrethroid-susceptible Helicoverpa armigera laboratory strain BK-77
Helicoverpa armigera [25] = test: Resistance factor, ratio of LD50 for fourth-instar larval stage of Helicoverpa armigera field strain Pitoa isolated from maize plant to LD50 for fourth-instar larval stage of pyrethroid-susceptible Helicoverpa armigera laboratory strain BK-77
Helicoverpa armigera [26] = test: Insecticidal activity against fourth-instar larval stage of Helicoverpa armigera field strain Guider isolated from cotton plant assessed as mortality applied topically onto thorax 30 min after 10 microg/larva cytochrome P450 monooxygenase inhibitor, PBO application measured after 48 hr
Helicoverpa armigera [27] = test: Synergism factor, ratio of LD50 for fourth-instar larval stage of Helicoverpa armigera Foumbot to LD50 for fourth-instar larval stage of Helicoverpa armigera Foumbot in presence of 10 microg/larva cytochrome P450 monooxygenase inhibitor, PBO
Helicoverpa armigera [28] = test: Resistance factor, ratio of LD50 for fourth-instar larval stage of Helicoverpa armigera field strain Djalingo to LD50 for fourth-instar larval stage of pyrethroid-susceptible Helicoverpa armigera laboratory strain BK-77
Helicoverpa armigera [29] = test: Insecticidal activity against fourth-instar larval stage of Helicoverpa armigera field strain Gaschiga isolated from hyptis plant assessed as mortality applied topically onto thorax 30 min after 10 microg/larva cytochrome P450 monooxygenase inhibitor, PBO application measured after 48 hr
Helicoverpa armigera [30] = test: Insecticidal activity against fourth-instar larval stage of pyrethroid-resistance Helicoverpa armigera laboratory strain GS-RR08 assessed as mortality applied topically onto thorax measured after 48 hr in presence of 3.2 microg/larva […]
Helicoverpa armigera [31] = test: Insecticidal activity against fourth-instar larval stage of Helicoverpa armigera field strain Djalingo isolated from cotton plant assessed as mortality applied topically onto thorax measured after 48 hr
Helicoverpa armigera [32] = test: Insecticidal activity against fourth-instar larval stage of Helicoverpa armigera field strain Ngong isolated from cotton plant assessed as mortality applied topically onto thorax measured after 48 hr
Helicoverpa armigera [33] = test: Insecticidal activity against fourth-instar larval stage of Helicoverpa armigera field strain Tchollire isolated from cotton plant assessed as mortality applied topically onto thorax measured after 48 hr
Helicoverpa armigera [34] = test: Insecticidal activity against fourth-instar larval stage of Helicoverpa armigera field strain Mokong isolated from cotton plant assessed as mortality applied topically onto thorax measured after 48 hr
Helicoverpa armigera [35] = test: Synergism factor, ratio of LD50 for fourth-instar larval stage of pyrethroid-resistance Helicoverpa armigera field strain Pitoa isolated from tomato plant to LD50 for fourth-instar larval stage of Helicoverpa armigera field strain Pitoa isolated from tomato plant in presence of 10 microg/larva cytochrome P450 monooxygenase inhibitor, PBO
Helicoverpa armigera [36] = test: Insecticidal activity against fourth-instar larval stage of pyrethroid-resistance Helicoverpa armigera laboratory strain GS-RR06 assessed as mortality applied topically onto thorax measured after 48 hr
Helicoverpa armigera [37] = test: Insecticidal activity against fourth-instar larval stage of Helicoverpa armigera field strain Ngong isolated from cotton plant assessed as mortality applied topically onto thorax 30 min after 10 microg/larva cytochrome P450 monooxygenase inhibitor, PBO application measured after 48 hr
Helicoverpa armigera [38] = test: Synergism factor, ratio of LD50 for fourth-instar larval stage of pyrethroid-resistance Helicoverpa armigera laboratory strain GS-RR06 to LD50 for fourth-instar larval stage of pyrethroid-resistance Helicoverpa armigera laboratory strain GS-RR06 in presence of 10 microg/larva cytochrome P450 monooxygenase inhibitor, PBO
Helicoverpa armigera [39] = test: Insecticidal activity against fourth-instar larval stage of Helicoverpa armigera field strain Home isolated from cotton plant assessed as mortality applied topically onto thorax 30 min after 10 microg/larva cytochrome P450 monooxygenase inhibitor, PBO application measured after 48 hr
Helicoverpa armigera [40] = test: Resistance factor, ratio of LD50 for fourth-instar larval stage of pyrethroid-resistance Helicoverpa armigera laboratory strain GS-RR08 to LD50 for fourth-instar larval stage of pyrethroid-susceptible Helicoverpa armigera laboratory strain BK-77
Helicoverpa armigera [41] = test: Insecticidal activity against fourth-instar larval stage of Helicoverpa armigera field strain Pitoa isolated from maize plant assessed as mortality applied topically onto thorax measured after 48 hr
Helicoverpa armigera [42] = test: Resistance factor, ratio of LD50 for fourth-instar larval stage of Helicoverpa armigera field strain Guider to LD50 for fourth-instar larval stage of pyrethroid-susceptible Helicoverpa armigera laboratory strain BK-77
Helicoverpa armigera [43] = test: Insecticidal activity against fourth-instar larval stage of pyrethroid-resistance Helicoverpa armigera laboratory strain GS-RR06 assessed as mortality applied topically onto thorax 30 min after 10 microg/larva cytochrome P450 monooxygenase inhibitor, PBO application measured after 48 hr
Helicoverpa armigera [44] = test: Resistance factor, ratio of LD50 for fourth-instar larval stage of Helicoverpa armigera field strain Gaschiga isolated from tomato plant to LD50 for fourth-instar larval stage of pyrethroid-susceptible Helicoverpa armigera laboratory strain BK-77
Helicoverpa armigera [45] = test: Resistance factor, ratio of LD50 for fourth-instar larval stage of Helicoverpa armigera field strain Pitoa isolated from tomato plant to LD50 for fourth-instar larval stage of pyrethroid-susceptible Helicoverpa armigera laboratory strain BK-77
Helicoverpa armigera [46] = test: Insecticidal activity against fourth-instar larval stage of Helicoverpa armigera field strain Gaschiga isolated from tomato plant assessed as mortality applied topically onto thorax measured after 48 hr
Helicoverpa armigera [47] = test: Insecticidal activity against fourth-instar larval stage of Helicoverpa armigera field strain Pitoa isolated from tomato plant assessed as mortality applied topically onto thorax measured after 48 hr

`CC1(C)C(C=C(Cl)Cl)C1C(=O)OC(C#N)c1cccc(Oc2ccccc2)c1` (stereo not drawn) [ALPHA-CYPERMETHRIN] was tested, and the Ratio (Helicoverpa armigera [1]) was 96, the LD50 (Helicoverpa armigera [2]) was 53.2 microgAi/g and the Ratio (Helicoverpa armigera [3]) was 1529. For the same molecule, the Ratio (Helicoverpa armigera [4]) was 174, the Ratio (Helicoverpa armigera [5]) was 8.3 and the Ratio (Helicoverpa armigera [6]) was 3.6. For the same molecule, the LD50 (Helicoverpa armigera [7]) was 31.6 microgAi/g, the LD50 (Helicoverpa armigera [8]) was 63 microgAi/g and the Ratio (Helicoverpa armigera [9]) was 152. It also gave a Ratio (Helicoverpa armigera [10]) of 102, an LD50 (Helicoverpa armigera [11]) of 43.9 microgAi/g and a Ratio (Helicoverpa armigera [12]) of 93. For the same molecule, the LD50 (Helicoverpa armigera [13]) was 45 microgAi/g, the LD50 (Helicoverpa armigera [14]) was 28.9 microgAi/g and the LD50 (Helicoverpa armigera [15]) was 57.7 microgAi/g. It also gave a Ratio (Helicoverpa armigera [16]) of 2.1, a Ratio (Helicoverpa armigera [17]) of 25 and a Ratio (Helicoverpa armigera [18]) of 3.7. The Ratio (Helicoverpa armigera [19]) was 123, the LD50 (Helicoverpa armigera [20]) was 0.5 microgAi/g and the LD50 (Helicoverpa armigera [21]) was 81.6 microgAi/g. It also gave a Ratio (Helicoverpa armigera [22]) of 37.5, an LD50 (Helicoverpa armigera [23]) of 832.5 microgAi/g and a Ratio (Helicoverpa armigera [24]) of 240. For the same molecule, the Ratio (Helicoverpa armigera [25]) was 510, the LD50 (Helicoverpa armigera [26]) was 8.8 microgAi/g and the Ratio (Helicoverpa armigera [27]) was 1.3. It also gave a Ratio (Helicoverpa armigera [28]) of 194, an LD50 (Helicoverpa armigera [29]) of 1.8 microgAi/g and an LD50 (Helicoverpa armigera [30]) of 226.6 microgAi/g. It also gave an LD50 (Helicoverpa armigera [31]) of 91.5 microgAi/g, an LD50 (Helicoverpa armigera [32]) of 112.6 microgAi/g and an LD50 (Helicoverpa armigera [33]) of 48 microgAi/g. For the same molecule, the LD50 (Helicoverpa armigera [34]) was 71.5 microgAi/g, the Ratio (Helicoverpa armigera [35]) was 5 and the LD50 (Helicoverpa armigera [36]) was 718.4 microgAi/g. For the same molecule, the LD50 (Helicoverpa armigera [37]) was 3 microgAi/g, the Ratio (Helicoverpa armigera [38]) was 1.5 and the LD50 (Helicoverpa armigera [39]) was 21.3 microgAi/g. For the same molecule, the Ratio (Helicoverpa armigera [40]) was 1771, the LD50 (Helicoverpa armigera [41]) was 239.9 microgAi/g and the Ratio (Helicoverpa armigera [42]) was 67. The LD50 (Helicoverpa armigera [43]) was 480.3 microgAi/g.
`Clc1ccc(C(c2ccc(Cl)cc2)C(Cl)(Cl)Cl)cc1` [CHLOROPHENOTHANE] showed a Ratio (Helicoverpa armigera [3]) of 1, a Ratio (Helicoverpa armigera [44]) of 1.4 and a Ratio (Helicoverpa armigera [10]) of 1. It also gave a Ratio (Helicoverpa armigera [45]) of 1.3, an LD50 (Helicoverpa armigera [20]) of 24.3 microgAi/g and a Ratio (Helicoverpa armigera [24]) of 1.4. For the same molecule, the Ratio (Helicoverpa armigera [25]) was 1.9, the LD50 (Helicoverpa armigera [32]) was 36.8 microgAi/g and the LD50 (Helicoverpa armigera [33]) was 26.7 microgAi/g. It also gave an LD50 (Helicoverpa armigera [36]) of 26.1 microgAi/g, an LD50 (Helicoverpa armigera [46]) of 37.4 microgAi/g and an LD50 (Helicoverpa armigera [41]) of 48.9 microgAi/g. It also gave an LD50 (Helicoverpa armigera [47]) of 34.8 microgAi/g.
In the case of `CCCSP(=O)(OCC)Oc1ccc(Br)cc1Cl` (configuration not stated) [PROFENOFOS], the Ratio (Helicoverpa armigera [3]) was 3.9, the Ratio (Helicoverpa armigera [44]) was 5.3 and the Ratio (Helicoverpa armigera [45]) was 7.9. For the same molecule, the LD50 (Helicoverpa armigera [20]) was 4.6 microgAi/g, the Ratio (Helicoverpa armigera [24]) was 4 and the Ratio (Helicoverpa armigera [25]) was 4.2. It also gave an LD50 (Helicoverpa armigera [32]) of 18.5 microgAi/g, an LD50 (Helicoverpa armigera [36]) of 17.7 microgAi/g and an LD50 (Helicoverpa armigera [46]) of 24.3 microgAi/g. It also gave an LD50 (Helicoverpa armigera [41]) of 19.5 microgAi/g and an LD50 (Helicoverpa armigera [47]) of 36.2 microgAi/g.
